In the oligonucleotide strings, read from the 5' end, every base follows the letter of its sugar. An asterisk marks phosphorothioate; unmarked linkages are phosphodiester. Other units and linkages are bracketed, terminal groups are in braces. A string of capitals states the bases alone. e = 2'-O-(2-methoxyethyl) (MOE); [5mC] = 5-methylcytosine; d = 2'-deoxy (DNA)
System: human Factor 7 mRNA
Experiment: Antisense inhibition of human Factor 7 mRNA in HepB3 cells, lipofectin, 50 nM, real-time RT-PCR
Format: cell-based
Conditions: for % Inhibition (human Factor 7 mRNA): 50 nM, ~24 h
Procedure, shortened: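 Percent inhibition of Factor 7 mRNA, relative to untreated control, comes from real-time RT-PCR with RIBOGREEN normalization, using primer probe set RTS 2927 in some runs. RNA was taken roughly 24 h after lipofectin delivery of 50 nM oligonucleotide into HepB3 cells.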

[1] = HepB3 cells, gapmers targeted to nucleobases 13760 to 13789 of SEQ ID NO: 1 (Table 10)
[2] = Example 1, HepB3 cells, lipofectin, relative to untreated control cells
[3] = Example 4, HepB3 cells, lipofectin, relative to untreated control
[4] = Example 6 microwalk, nucleobases 15098 to 15122 of SEQ ID NO: 1, HepB3, lipofectin
[5] = HepB3 cells, lipofectin, 50 nM antisense oligonucleotide, approximately 24 hours, primer probe set RTS 2927, relative to untreated control
[6] = HepB3 cells, gapmers targeted to nucleobases 11830 to 11869 of SEQ ID NO: 1 (Table 9)
[7] = HepB3 cells, gapmers (5-10-5, 3-14-3, 2-13-5 MOE) targeted to nucleobases 4868 to 4899 of SEQ ID NO: 1

422110 (antisense eA*e[5mC]*e[5mC]*e[5mC]*eG*d[5mC]*d[5mC]*dG*dG*d[5mC]*dT*d[5mC]*dT*dG*d[5mC]*eT*e[5mC]*eA*eT*e[5mC]) [compound 422110]
% Inhibition of human Factor 7 mRNA levels [1]: 53%

407887 (antisense e[5mC]*e[5mC]*eA*eG*eG*d[5mC]*dA*dG*d[5mC]*d[5mC]*d[5mC]*dT*dG*dA*dA*eG*e[5mC]*e[5mC]*e[5mC]*eA) [compound 407887]
% Inhibition (human Factor 7 mRNA) [2]: 78%

407626 (antisense eT*e[5mC]*eT*eT*eG*dA*dT*dT*dT*dT*dG*dT*d[5mC]*dG*dA*eA*eA*e[5mC]*eA*eG) [compound 407626]
% Inhibition (human Factor 7 mRNA) [2]: 82%

422122 (antisense eA*eG*e[5mC]*eG*e[5mC]*dG*dG*dA*dA*dG*dA*dA*dG*dG*dG*eA*e[5mC]*eG*eG*eA) [compound 422122]
% Inhibition (human Factor 7 mRNA) [3]: 24%

422211 (antisense eA*e[5mC]*eA*dG*d[5mC]*dA*d[5mC]*dA*d[5mC]*dA*dT*dG*dG*dA*dG*dT*d[5mC]*eA*eG*e[5mC]) [compound 422211]
% Inhibition (human Factor 7 mRNA) [4]: 42%

416502 (antisense eG*eT*eT*e[5mC]*eT*dT*dT*dG*dA*dA*dA*dA*dA*dT*dA*eA*eT*e[5mC]*e[5mC]*e[5mC]) [compound 416502]
% Inhibition of human Factor 7 mRNA levels [5]: 22%

416424 (antisense eG*eA*eG*eA*e[5mC]*d[5mC]*dA*dT*dG*dA*dT*dG*dA*dA*dA*eT*e[5mC]*eT*e[5mC]*eT) [compound 416424]
% Inhibition of human Factor 7 mRNA levels [5]: 27%

407607 (antisense eT*eG*eG*eA*eG*d[5mC]*dT*dG*dG*dT*d[5mC]*d[5mC]*dT*dT*dG*e[5mC]*eA*eG*eG*eA) [compound 407607]
% Inhibition (human Factor 7 mRNA) [2]: 76%

422248 (antisense eG*eG*d[5mC]*dT*dG*dA*dG*dG*dA*dG*dA*d[5mC]*dA*dA*dT*eG*eG*eT*e[5mC]*eA) [compound 422248]
% Inhibition of human Factor 7 mRNA levels [6]: 60%

416559 (antisense eG*e[5mC]*e[5mC]*eA*eT*dT*dT*d[5mC]*dT*dA*dG*dG*dT*d[5mC]*dT*eG*e[5mC]*eA*eG*eG) [compound 416559]
% Inhibition of human Factor 7 mRNA levels [5]: 25%

422206 (antisense e[5mC]*eA*eG*d[5mC]*dA*dG*d[5mC]*d[5mC]*dT*dG*dA*dG*dG*d[5mC]*d[5mC]*dA*dG*e[5mC]*eA*eG) [compound 422206]
% Inhibition of human Factor 7 mRNA levels (HepB3 cells, gapmers targeted to nucleobases 14707 to 14732 of SEQ ID NO: 1 (Table 11)): 65%

407906 (antisense eA*e[5mC]*e[5mC]*eA*e[5mC]*dG*dG*dG*d[5mC]*dT*dG*dG*dT*dG*d[5mC]*eA*eG*eG*e[5mC]*eG) [compound 407906]
% Inhibition (human Factor 7 mRNA) [2]: 4%

422144 (antisense e[5mC]*e[5mC]*e[5mC]*eG*eA*dG*dT*dT*d[5mC]*dT*dG*d[5mC]*dA*dG*dG*eA*eG*e[5mC]*eG*eG) [compound 422144]
% Inhibition of human Factor 7 mRNA levels [7]: 58%

416425 (antisense eA*eA*eG*e[5mC]*eA*dG*dA*dA*dG*dG*d[5mC]*dA*dG*dA*dG*eG*eA*eG*e[5mC]*e[5mC]) [compound 416425]
% Inhibition of human Factor 7 mRNA levels [5]: 13%

422275 (antisense eG*eT*dT*dA*d[5mC]*dT*dG*dA*dG*d[5mC]*dG*d[5mC]*dG*dG*dA*eA*eG*eA*eA*eG) [compound 422275]
% Inhibition (human Factor 7 mRNA) [3]: 42%

407938 (antisense e[5mC]*eA*e[5mC]*e[5mC]*e[5mC]*dA*dG*d[5mC]*dG*dA*dA*dG*dG*dG*dA*eG*eA*eA*eA*eT) [compound 407938]
% Inhibition (human Factor 7 mRNA) [2]: 60%

407630 (antisense e[5mC]*eA*e[5mC]*eA*eT*dG*dG*dT*d[5mC]*dA*dG*dT*dG*dA*dG*eG*eA*e[5mC]*e[5mC]*eA) [compound 407630]
% Inhibition (human Factor 7 mRNA) [2]: 29%

422225 (antisense eA*eG*eG*dA*dG*d[5mC]*d[5mC]*d[5mC]*dG*dA*dG*dT*dT*d[5mC]*dT*dG*d[5mC]*eA*eG*eG) [compound 422225]
% Inhibition of human Factor 7 mRNA levels [7]: 56%

416544 (antisense eA*eT*e[5mC]*e[5mC]*e[5mC]*dA*dT*dT*dT*dT*d[5mC]*d[5mC]*d[5mC]*dA*dG*eG*eA*eG*e[5mC]*e[5mC]) [compound 416544]
% Inhibition of human Factor 7 mRNA levels [5]: 58%

407604 (antisense e[5mC]*eA*e[5mC]*eA*e[5mC]*dT*dG*dG*dT*d[5mC]*d[5mC]*d[5mC]*d[5mC]*dA*dT*e[5mC]*eA*e[5mC]*eT*eG) [compound 407604]
% Inhibition (human Factor 7 mRNA) [2]: 34%

416422 (antisense eA*eG*e[5mC]*eG*eA*d[5mC]*d[5mC]*d[5mC]*d[5mC]*dG*d[5mC]*d[5mC]*dT*dG*d[5mC]*eA*eG*e[5mC]*e[5mC]*eA) [compound 416422]
% Inhibition of human Factor 7 mRNA levels [5]: 8%

407953 (antisense eA*e[5mC]*eA*eT*e[5mC]*d[5mC]*dA*dA*dT*dT*d[5mC]*d[5mC]*dA*d[5mC]*dA*eG*eG*eA*eT*e[5mC]) [compound 407953]
% Inhibition (human Factor 7 mRNA) [2]: 20%

407920 (antisense eT*eG*eA*eG*e[5mC]*dG*d[5mC]*dA*dT*dG*dA*dG*d[5mC]*dT*dT*eT*eT*eG*e[5mC]*eA) [compound 407920]
% Inhibition (human Factor 7 mRNA) [2]: 65%

407925 (antisense eG*eA*eA*eT*eA*dT*dA*dT*dG*dG*dG*dA*dT*dT*dT*eG*eG*eT*eG*e[5mC]) [compound 407925]
% Inhibition (human Factor 7 mRNA) [2]: 64%

422154 (antisense eT*e[5mC]*eA*dG*dG*dG*d[5mC]*dT*dG*dG*dT*dT*dT*dT*dG*dG*dA*eG*eG*eA) [compound 422154]
% Inhibition of human Factor 7 mRNA levels [6]: 31%

416441 (antisense eA*eG*eA*eT*eA*dT*dA*dG*dG*dA*d[5mC]*dT*dG*dG*dA*eG*e[5mC]*eT*eG*eG) [compound 416441]
% Inhibition of human Factor 7 mRNA levels [5]: 32%

422109 (antisense e[5mC]*e[5mC]*e[5mC]*eG*e[5mC]*d[5mC]*dG*dG*d[5mC]*dT*d[5mC]*dT*dG*d[5mC]*dT*e[5mC]*eA*eT*e[5mC]*e[5mC]) [compound 422109]
% Inhibition of human Factor 7 mRNA levels [1]: 68%

422181 (antisense eG*e[5mC]*e[5mC]*dA*d[5mC]*d[5mC]*d[5mC]*dG*d[5mC]*d[5mC]*dG*dG*d[5mC]*dT*d[5mC]*dT*dG*e[5mC]*eT*e[5mC]) [compound 422181]
% Inhibition of human Factor 7 mRNA levels [1]: 66%

422100 (antisense eG*eA*eG*eG*eA*dG*dA*d[5mC]*dA*dA*dT*dG*dG*dT*d[5mC]*eA*eG*eG*eG*e[5mC]) [compound 422100]
% Inhibition of human Factor 7 mRNA levels [6]: 59%

422235 (antisense eA*eT*dG*dG*dT*d[5mC]*dA*dG*dG*dG*d[5mC]*dT*dG*dG*dT*eT*eT*eT*eG*eG) [compound 422235]
% Inhibition of human Factor 7 mRNA levels [6]: 50%

422185 (antisense e[5mC]*eT*eG*d[5mC]*dG*d[5mC]*d[5mC]*dA*d[5mC]*d[5mC]*d[5mC]*dG*d[5mC]*d[5mC]*dG*dG*d[5mC]*eT*e[5mC]*eT) [compound 422185]
% Inhibition of human Factor 7 mRNA levels [1]: 48%

416465 (antisense e[5mC]*eA*e[5mC]*eT*eG*dT*d[5mC]*d[5mC]*d[5mC]*d[5mC]*d[5mC]*dT*dT*dG*d[5mC]*eA*eG*eG*eA*eG) [compound 416465]
% Inhibition of human Factor 7 mRNA levels [5]: 51%

407605 (antisense eT*eT*eG*eA*eG*dG*d[5mC]*dA*d[5mC]*dA*d[5mC]*dT*dG*dG*dT*e[5mC]*e[5mC]*e[5mC]*e[5mC]*eA) [compound 407605]
% Inhibition (human Factor 7 mRNA) [2]: 58%

422210 (antisense e[5mC]*eA*eG*d[5mC]*dA*d[5mC]*dA*d[5mC]*dA*dT*dG*dG*dA*dG*dT*d[5mC]*dA*eG*e[5mC]*eA) [compound 422210]
% Inhibition (human Factor 7 mRNA) [4]: 25%

422141 (antisense eA*eG*eT*eT*e[5mC]*dT*dG*d[5mC]*dA*dG*dG*dA*dG*d[5mC]*dG*eG*e[5mC]*e[5mC]*eT*eA) [compound 422141]
% Inhibition of human Factor 7 mRNA levels [7]: 64%

422088 (antisense eT*e[5mC]*eA*eG*eG*dG*d[5mC]*dT*dG*dG*dT*dT*dT*dT*dG*eG*eA*eG*eG*eA) [compound 422088]
% Inhibition of human Factor 7 mRNA levels [6]: 8%

407951 (antisense eA*eA*e[5mC]*eA*eG*d[5mC]*dT*dT*dT*dT*dG*dT*dT*dT*dT*eT*eA*eA*eA*eA) [compound 407951]
% Inhibition (human Factor 7 mRNA) [2]: 0%

422259 (antisense e[5mC]*eG*d[5mC]*d[5mC]*dA*d[5mC]*d[5mC]*d[5mC]*dG*d[5mC]*d[5mC]*dG*dG*d[5mC]*dT*e[5mC]*eT*eG*e[5mC]*eT) [compound 422259]
% Inhibition of human Factor 7 mRNA levels [1]: 61%

422117 (antisense eG*eG*eA*eA*eG*dA*dA*dG*dG*dG*dA*d[5mC]*dG*dG*dA*eA*eG*eG*eT*eG) [compound 422117]
% Inhibition (human Factor 7 mRNA) [3]: 1%

422236 (antisense eA*eA*dT*dG*dG*dT*d[5mC]*dA*dG*dG*dG*d[5mC]*dT*dG*dG*eT*eT*eT*eT*eG) [compound 422236]
% Inhibition of human Factor 7 mRNA levels [6]: 44%

416538 (antisense e[5mC]*eG*eT*eG*eG*dA*d[5mC]*dT*dG*dA*dT*d[5mC]*d[5mC]*dA*dA*eA*eG*eG*eA*e[5mC]) [compound 416538]
% Inhibition of human Factor 7 mRNA levels [5]: 46%

416485 (antisense eG*eA*eG*e[5mC]*eT*dA*d[5mC]*dA*dG*d[5mC]*d[5mC]*dT*d[5mC]*dA*dA*eA*e[5mC]*eA*eT*e[5mC]) [compound 416485]
% Inhibition of human Factor 7 mRNA levels [5]: 7%

407657 (antisense eG*eG*eG*eA*e[5mC]*dT*d[5mC]*dA*dG*d[5mC]*dA*dA*dG*dA*dG*eT*eG*e[5mC]*eA*eG) [compound 407657]
% Inhibition (human Factor 7 mRNA) [2]: 26%

From US20120214862A1, “MODULATION OF FACTOR 7 EXPRESSION” (ISIS Pharmaceuticals, Inc., priority 2009, published 2012)
